These results are taken from US11406649B2, “Treatment of upper aerodigestive tract disorders and cough” (IVIEW THERAPEUTICS, INC., priority 2018, dated 2022).

Converted amounts (≈) assume the structure as drawn. Bounds are passed on as bounds.

Series [1] is described as follows: Water solubility of 1-dialkylphosphorylalkanes. The conditions noted are these: water. It counts as physicochemical. The source says:
The DIPA compounds are colorless liquids with a density less than water. These structures differ from those described by Rowsell and Spring U.S. Pat. No. 4,070,496 because '496 structures have their “head” (phosphine oxide group) covered by larger, more lipophilic groups. […] The applicant synthesized these analogs (which are achiral, by contrast to the structures of '496 which are >95% chiral). […] This increased water-solublility is striking (Table 3). […] The DIPA analogs are now mobile in the extracellular fluids and permeate between cells to access nerve endings in the stratum basale.

A further series has as its system Oral Cavity and Pharynx. Kind of series: Sensory qualities of compounds in syrup applied to base of tongue of volunteers. It counts as in vivo, human. As to conditions: for duration of unpleasant tastes: metallic, organic solvent-like, harsh. Here is the method: The DIPA compounds was 5 mg/mL in cherry-flavored syrup in a volume of 0.8 mL per dose. The sensory effect were recorded every 5 min for 1 hr.
Tests were on four volunteers, with 3 to 5 trials per substance. Compounds were prepared in cherry-flavored syrup at 5 mg/mL and administered ˜0.8 mL per dose with a 2 mL plastic vial to the base of the tongue. The subjects asked to rate the sensations for cooling intensity, cold discomfort and adverse taste.
The concentration of the DIPA compounds was 5 mg/mL in cherry-flavored syrup administered in a volume of 0.8 mL per dose. The sensory effect were recorded every 5 min for 1 hr.

The target in another series is cloned hTRPM8 channel (Homo sapiens (Human), UniProt Q7Z2W7). The series can be described thus: TRPM8 agonist activity, Fluo-8 calcium FLIPR assay (ChanTest). As to conditions: for Relative Potency to L-menthol: L-menthol = 1.0; for TRPM8 Relative Potency: Table 8, DIPA-1-7 = 1; for TRPM8 bioactivity: structural modifications. Type of series: cell-based. Here is the method: In the first set of data, the potency and in vitro effects of test compounds were evaluated on cloned hTRPM8 channel (encoded by the human TRPM8 gene, expressed in CHO cells) using a Fluo-8 calcium kit and a Fluorescence Imaging Plate Reader (FLIPR^TETRA™) instrument. […] Test solutions were in a HEPES-buffered saline, in 384-well plates, and placed into the FLIPR instrument (Molecular Devices Corporation, Union City, Calif., USA). […] The test cells were Chinese Hamster Ovary (CHO) cells stably transfected with human TRPM8 cDNAs. Concentration-response data were analyzed via FLIPR Control software) and fitted to a Hill equation for the EC50.
Sequence of cloned hTRPM8 channel (Q7Z2W7 whole entry): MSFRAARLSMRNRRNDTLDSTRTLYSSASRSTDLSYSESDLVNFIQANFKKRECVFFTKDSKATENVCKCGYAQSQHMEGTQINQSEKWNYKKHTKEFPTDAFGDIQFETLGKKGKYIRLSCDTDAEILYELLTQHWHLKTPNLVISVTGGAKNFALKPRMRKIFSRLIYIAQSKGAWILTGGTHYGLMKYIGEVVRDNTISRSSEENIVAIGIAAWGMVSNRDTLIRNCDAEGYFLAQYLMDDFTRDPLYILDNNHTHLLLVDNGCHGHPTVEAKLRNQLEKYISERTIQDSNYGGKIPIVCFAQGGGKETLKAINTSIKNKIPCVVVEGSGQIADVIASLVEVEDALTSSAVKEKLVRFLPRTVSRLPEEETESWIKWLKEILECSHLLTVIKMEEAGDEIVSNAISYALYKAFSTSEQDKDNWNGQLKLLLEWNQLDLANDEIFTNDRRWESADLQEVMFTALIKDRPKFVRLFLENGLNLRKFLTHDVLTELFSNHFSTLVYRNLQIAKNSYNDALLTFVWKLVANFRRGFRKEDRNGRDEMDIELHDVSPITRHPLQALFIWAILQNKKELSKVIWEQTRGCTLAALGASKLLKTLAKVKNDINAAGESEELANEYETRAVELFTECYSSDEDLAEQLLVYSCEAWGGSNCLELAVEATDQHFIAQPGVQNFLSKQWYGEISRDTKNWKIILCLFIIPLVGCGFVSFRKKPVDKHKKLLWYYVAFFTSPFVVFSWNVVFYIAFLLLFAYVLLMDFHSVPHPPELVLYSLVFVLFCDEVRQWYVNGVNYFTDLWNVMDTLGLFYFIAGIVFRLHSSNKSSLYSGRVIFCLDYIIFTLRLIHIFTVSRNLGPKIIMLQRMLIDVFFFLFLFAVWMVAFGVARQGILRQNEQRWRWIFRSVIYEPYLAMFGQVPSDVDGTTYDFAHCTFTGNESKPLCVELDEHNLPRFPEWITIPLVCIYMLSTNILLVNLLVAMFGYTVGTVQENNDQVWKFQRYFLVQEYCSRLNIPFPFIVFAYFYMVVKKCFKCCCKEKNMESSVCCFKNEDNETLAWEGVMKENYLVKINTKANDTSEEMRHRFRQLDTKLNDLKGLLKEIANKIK

Series [2] deals with acid-induced swallowing movements. Kind of series: Suppression of acid-induced swallowing movements in the anesthetized rat. It counts as in vivo. As to conditions: for EC50: anesthetized rat; for Relative Potency: suppression of acid-induced swallowing. The source says:
A principal endogenous irritant in the linings of the upper aerodigestive tract is hydrochloric acid. Acid stimulations of the mucosa of the pharynx will elicit reflex swallowing. […] In a rat animal model, solutions of organic acids such as acetic acid and citric acid were effective in eliciting swallowing [Kajii et al., Sour taste stimulation facilitates reflex swallowing from the pharynx and larynx in the rat Physiology & Behavior 77: 321-325, 2002]. These methods for measuring sensory responses to acid can be adapted for screening the activity of DIPA-1-9. An agent that stimulates swallowing or an agent that suppress the acid challenge may then have utility in relieving dysphagia or the discomfort of heartburn, respectively. Preliminary experiments were conducted at the Pavlov Institute of Physiology, St. Petersburg, Russia, using adult male Wistar rats (see Table 11) and Wei (US 0.2015/0111852 A1). Swallowing movements was identified as the electromyogram activity and could also be visualized as laryngeal movement. Work is in progress to get more results for DIPA-1-9.

In a further series the test system is rat skin. Kind of series: Skin irritation tests on rat skin. It counts as in vivo. Further details: key to Redness after 20 μL applied topically to skin (scale of 0 to +++): scale of 0 to +++; scale of 0 to +++; scale of 0 to +++; scale of 0 to +++. As to conditions: for Redness after 20 μL applied topically to skin (scale of 0 to +++): rat skin; for skin irritancy: undiluted form.

A further series deals with oropharynx and esophagus. Kind of series: Sensory events and cold discomfort of compounds on throat, chest and body. The conditions noted are these: for icy cold / pain in throat: DIPA-1-9 up to 12 mg per unit.
Another series deals with anesthetized rat. Kind of series: In vivo transdermal activity: shaking after topical application to abdominal skin of anesthetized rat. As to conditions: pure compound 20 μL on abdominal skin, counted 40 min. On the procedure:
Shaking frequency was counted for 40 min after topical application.
The importance of water solubility for permeation was further illustrated in studies on the abdominal skin of anesthetized rat. […] The pharmacokinetic determinants of bioactivity are precise. Thus, for the avoidance of cold discomfort, DIPA-1-9 has to reach the receptors in the stratum basale but not “over-stimulate”.

The mark [3] stands for this setting: 5 mg/mL in cherry-flavored syrup, ~0.8 mL.
The mark [4] stands for this setting: 5 mg/mL in cherry-flavored syrup.

Excerpt for oropharynx and esophagus: The terms “icy cold” is used to describe this adverse event in the throat.
Most likely, the compound rapidly distributed and activated cold sensations in the eosophageal lining.

The term solubility denotes the concentration that dissolves in the medium under given conditions. In series [1], `CCCCCC[P@@](=O)(C(C)C)[C@@H](C)CC` [3,4-6, 1-(Isopropyl-sec-butyl)-phosphinoyl-hexane] showed a solubility of 25 mg/mL (≈ 108 mM). Moreover, the “Adverse Taste” value in the series on Oral Cavity and Pharynx (setting [3]) is 0.

As to `CCCCCCC[P@@](=O)(C(C)C)[C@@H](C)CC` [3,4-7, 1-(Isopropyl-sec-butyl)-phosphinoyl-heptane], the concentration in solution in series [1] (solubility) was 20 mg/mL (≈ 81.2 mM).

With `CCCCP(=O)(C(C)CC)C(C)CC` (centres unmarked) [DAPA-2-4, 1-Di(sec-butyl)-phosphinoyl-butane], the “Relative Potency to L-menthol” value on cloned hTRPM8 channel turned out to be 0.3.

On to `CCCCCP(=O)(C(C)CC)C(C)CC` (centres unmarked) [DAPA-2-5, 1-di-sec-butyl-phosphorylpentane], for which the “Relative Potency to L-menthol” value at cloned hTRPM8 channel amounted to 2.2. Besides, the solubility in series [1] was 22 mg/mL (≈ 94.7 mM).

One may read the EC50 as the concentration giving half of the maximal effect. Turning to `CCCCCCP(=O)(C(C)CC)C(C)CC` (centres unmarked) [DAPA-2-6, 1-Di(sec-butyl)-phosphinoyl-hexane], in series [2], the half-maximal effective concentration (EC50) is 1700 ± 700 mg/L (≈ 6.9 mM) and the “Relative Potency” value is given as 0.05. Further, on cloned hTRPM8 channel, the “Relative Potency to L-menthol” value stood at 4.7 and the “TRPM8 Relative Potency” value is on record as 0.87. Also, in the series with rat skin, the “Redness after 20 μL applied topically to skin (scale of 0 to +++)” value was “+” and the skin irritancy result is given as “skin irritants”. The “icy cold / pain in throat” value in the series on oropharynx and esophagus is on record as “icy cold”. Further, in series [1], the solubility was found to be 8 mg/mL (≈ 32.5 mM). Besides, in the series on Oral Cavity and Pharynx (setting [4]), the “sensory effects” value is “cold, icy cold, and adverse tastes”. The Sensation entry in the series with Oral Cavity and Pharynx (setting [3]) is “icy cold”. Further, in the series on Oral Cavity and Pharynx, the “duration of unpleasant tastes” value is on record as “at least 15 min”.

With `CCCCCCCP(=O)(C(C)CC)C(C)CC` (centres unmarked) [DAPA-2-7, 1-Di(sec-butyl)-phosphinoyl-heptane], in series [2], the EC50 was 200 ± 20 mg/L (≈ 0.768 mM) and the “Relative Potency” value was 0.45. Further, the “Comments: duration of effect” value in series [2] (long-lasting) is given as “lasting; > ~30 min”. Also, at cloned hTRPM8 channel, the “Relative Potency to L-menthol” value was found to be 3.4 and the “TRPM8 Relative Potency” value was 0.64. Moreover, in the series with rat skin, the “Redness after 20 μL applied topically to skin (scale of 0 to +++)” value is on record as “++” and the skin irritancy result is given as “skin irritants”. Also, the “icy cold / pain in throat” value in the series with oropharynx and esophagus is “icy cold”. In addition, in the series on oropharynx and esophagus (higher oral doses (5 mg or more)), the “systemic sensations of cold” value was “sensations of cold on other body surfaces”. Further, the solubility in series [1] was less than 3 mg/mL. In the series with Oral Cavity and Pharynx (setting [4]), the “sensory effects” value was “cold, icy cold, and adverse tastes”. Moreover, in the series with Oral Cavity and Pharynx (setting [3]), the Sensation entry is “icy cold”. Moreover, the “duration of unpleasant tastes” value in the series with Oral Cavity and Pharynx is listed as “at least 15 min”.

`CCCCCCCCP(=O)(C(C)CC)C(C)CC` (centres unmarked) [DAPA-2-8, 1-Di(sec-butyl)-phosphinoyl-octane]: in series [2], it took 560 ± 170 mg/L (≈ 2.04 mM) to reach a half-maximal effect (EC50) and the “Relative Potency” value is given as 0.16. For the same compound, on cloned hTRPM8 channel, the “Relative Potency to L-menthol” value stood at 2.9 and the “TRPM8 Relative Potency” value is 0.71. In addition, in series [1], the solubility is less than 3 mg/mL. Also, the Sensation entry in the series on Oral Cavity and Pharynx (setting [3]) is “cold”. Further, in the series on Oral Cavity and Pharynx, the “duration of unpleasant tastes” value is recorded as “at least 15 min”.

Turning to `CCCCCP(=O)(CC(C)C)CC(C)C` [DAPA-3-1, 1-di(iso-butyl) phosphinoyl-pentane], at cloned hTRPM8 channel, the “Relative Potency to L-menthol” value turned out to be 0.2 and the “TRPM8 bioactivity” value is “significant loss of bioactivity”.

Consider `CCC(C)P(=O)(CCC(C)C)C(C)CC` (centres unmarked) [DAPA-3-2, 1-Di(sec-butyl) phosphinoyl-3-methyl-butane], for which, on cloned hTRPM8 channel, the “Relative Potency to L-menthol” value turned out to be 0.9 and the “TRPM8 bioactivity” value is “significant loss of bioactivity”.

Turning to `CCCCCP(=O)(C(C)C)C(C)C` [DIPA-1-5, 1-Di(isopropyl)-phosphinoyl-pentane], the “Relative Potency to L-menthol” value on cloned hTRPM8 channel was found to be 0.7. The “shaking after topical application” value with anesthetized rat is recorded as “robust shaking”.

On to `CCCCCCP(=O)(C(C)C)C(C)C` [DIPA-1-6, 1-Di(isopropyl)-phosphinoyl-hexane], for which the “Relative Potency to L-menthol” value at cloned hTRPM8 channel stood at 1.6. For the same compound, the “shaking after topical application” value in the series with anesthetized rat was “robust shaking”. The “icy cold / pain in throat” value in the series with oropharynx and esophagus was “icy cold”.

As to `CCCCCCCCP(=O)(C(C)C)C(C)C` [DIPA-1-8, 1-Di(isopropyl)-phosphinoyl-octane], the “Relative Potency to L-menthol” value on cloned hTRPM8 channel is 5.4. For the same compound, the taste entry with oropharynx and esophagus (oral cavity / tongue) is on record as “this taste is present”. In addition, in series [1], the solubility was greater than 300 mg/mL. The “sensory effects” value in the series with Oral Cavity and Pharynx (setting [4]) is “cold, icy cold, and adverse tastes”. In addition, the Sensation result with Oral Cavity and Pharynx (setting [3]) is recorded as “cold”. For the same compound, the “duration of unpleasant tastes” value in the series with Oral Cavity and Pharynx is “at least 15 min”.

Take `O=C1NC(c2cccc([N+](=O)[O-])c2)=CCN1c1ccccc1O` [icilin, reference compound]: the sensory side-effects entry in the series with oropharynx and esophagus (menthol 5 mg in an orally dissolving tablet) is on record as “did not produce cooling in the chest or the desired sensations on the throat”.
